Measurements reported in patent publication US5068358A, “Process for extracting N-methyl-2-pyrrolidone” (Hoechst Aktiengesellschaft, priority 1988, dated 1991).
Read-outs that look alike come from different tables or passages of the source.

Experiments:
[1] = room temperature; cited from earlier work
[2] = type: physicochemical; details: nonylphenol
Description: From the group of the phenols as defined above and substituted by aliphatic radicals, those are advantageously selected for the use according to the invention, whose melting point is below 90° C., preferably below 50° C. and especially below 20°-30° C. A low melting point of the phenol derivatives used allows the process to be carried out at correspondingly low temperatures, which has a very favorable effect on the partition coefficient KD. KD is defined as follows: [formula]
The phases were then allowed to settle and were separated, and the concentration of NMP in the two phases was determined.
After the phases had been allowed to settle, these were separated, and the concentration of NMP in the two phases was determined.
Thereupon, the phases were allowed to settle and were separated, and the concentration of NMP in the two phases was determined.
[…] After the phases had been allowed to settle, these were separated, and the concentration of NMP in the two phases was determined.

[3] = Example 1a, feed 35% NMP, phase volume ratio 1:4, room temperature
[4] = Example 1b, feed 35% NMP, phase volume ratio 1:6, room temperature
[5] = Example 1c, feed 35% NMP, phase volume ratio 1:10, room temperature
[6] = Example 1e, feed 33% NMP, phase ratio 1:2, 70° C.
[7] = Example 1f, feed 33% NMP, phase volume ratio 1:10, 70° C.
[8] = Example 1d, feed 9% NMP, phase volume ratio 1:1, room temperature

Aqueous raffinate phase (% by weight of NMP) [2, 3] [% by weight] | Organic extract phase (% by weight of NMP) [2, 3] [% by weight] | Aqueous raffinate phase (% by weight of NMP) [2, 4] [% by weight] | Organic extract phase (% by weight of NMP) [2, 4] [% by weight] | Aqueous raffinate phase (% by weight of NMP) [2, 5] [% by weight] | Organic extract phase (% by weight of NMP) [2, 5] [% by weight] | Aqueous raffinate phase (% by weight of NMP) [2, 6] [% by weight] | Organic extract phase (% by weight of NMP) [2, 6] [% by weight] | Aqueous raffinate phase (% by weight of NMP) [2, 7] [% by weight] | Organic extract phase (% by weight of NMP) [2, 7] [% by weight] | Aqueous raffinate phase (% by weight of NMP) [2, 8] [% by weight] | Organic extract phase (% by weight of NMP) [2, 8] [% by weight] | Structure (SMILES) | solubility in water [1] [% by weight]
– | – | – | – | – | – | – | – | – | – | – | – | Cc1cc(C)cc(O)c1 [3,5-dimethylphenol] | 0.49
0.75 | 8.2 | 0.30 | 5.8 | 0.12 | 3.4 | 9.0 | 12.4 | 1.0 | 3.4 | 0.64 | 8.3 | CN1CCCC1=O [NMP, N-methyl-2-pyrrolidone] | –
– | – | – | – | – | – | – | – | – | – | – | – | Cc1cccc(O)c1 [m-cresol] | 2.3
